Measured values published in ChEMBL document CHEMBL2086302, “An investigation into the structure-activity relationships associated with the systematic modification of the β(2)-adrenoceptor agonist indacaterol” (Bioorg Med Chem Lett, 2012).

Key:
[1] = biological target: Beta-1 adrenergic receptor (Homo sapiens, UniProt P08588); assay: Binding affinity to human beta1-adrenoceptor by radioligand binding assay
[2] = biological target: T1, Beta-2 adrenergic receptor (Homo sapiens, UniProt P07550); assay: Binding affinity to human beta2-adrenoceptor by radioligand binding assay
Target sequence in this assay (P07550 whole entry): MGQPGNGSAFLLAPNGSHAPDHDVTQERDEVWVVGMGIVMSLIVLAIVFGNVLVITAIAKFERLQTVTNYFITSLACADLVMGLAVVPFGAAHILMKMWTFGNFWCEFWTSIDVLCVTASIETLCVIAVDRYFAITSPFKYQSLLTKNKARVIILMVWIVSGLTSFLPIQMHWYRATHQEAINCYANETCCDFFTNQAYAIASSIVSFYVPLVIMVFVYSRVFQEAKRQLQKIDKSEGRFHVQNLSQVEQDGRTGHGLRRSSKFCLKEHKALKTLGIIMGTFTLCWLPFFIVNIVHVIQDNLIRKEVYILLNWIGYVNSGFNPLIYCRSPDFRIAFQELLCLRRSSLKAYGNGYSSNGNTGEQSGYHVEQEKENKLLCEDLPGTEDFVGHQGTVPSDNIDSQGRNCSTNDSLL

Homo sapiens = organism: Homo sapiens; assay: Selectivity ratio of Ki for human beta1-adrenoceptor to Ki for human beta2-adrenoceptor
[3] = biological target: T1, Beta-2 adrenergic receptor; assay: Intrinsic efficacy at beta2-adrenoceptor in human bronchial smooth-muscle cell by cAMP assay; assay type: functional
Target sequence in this assay (P07550 whole entry, looked up): as the sequence (P07550 whole entry) above

[4] = biological target: T1, Beta-2 adrenergic receptor; assay: Agonist activity at beta2-adrenoceptor in human bronchial smooth-muscle cell by cAMP assay; assay type: functional
Target sequence in this assay (P07550 whole entry): as above

[5] = biological target: T1, Beta-2 adrenergic receptor; assay: Ratio of indacaterol Ki to compound Ki for human beta2-adrenoceptor
Target sequence in this assay (P07550 whole entry, looked up): as the sequence (P07550 whole entry) above

[6] = biological target: T1, Beta-2 adrenergic receptor; assay: Ratio of indacaterol EC50 to compound EC50 for beta2-adrenoceptor in human bronchial smooth-muscle cell by cAMP assay; assay type: functional
Target sequence in this assay (P07550 whole entry, looked up): as the sequence (P07550 whole entry) above

[7] = biological target: T1, Beta-2 adrenergic receptor; assay: Kinetic binding affinity to human beta2-adrenoceptor
Target sequence in this assay (P07550 whole entry): as above

D(2) dopamine receptor [8] = biological target: T2, D(2) dopamine receptor (Homo sapiens, UniProt P14416); assay: Intrinsic efficacy at human dopamine D2 receptor expressed in CHO cells assessed as increase in GTPgamma35S binding by scintillation proximity assay relative to dopamine; assay type: functional, cell-based
D(2) dopamine receptor [9] = biological target: T2, D(2) dopamine receptor; assay: Agonist activity at human dopamine D2 receptor expressed in CHO cells assessed as increase in GTPgamma35S binding by scintillation proximity assay; assay type: functional, cell-based
[10] = biological target: Beta-2 adrenergic receptor (Cavia porcellus, UniProt Q8K4Z4); assay: Agonist activity at beta2-adrenoceptor in guinea-pig tracheal-strip assessed as inhibition of electrically-stimulated muscle contraction; assay type: functional, tissue-based, Trachea
Rhesus monkey = assay: Bronchorelaxant activity in rhesus monkey assessed as inhibition of methacholine-induced bronchoconstriction; assay type: functional; details: Macaca mulatta
[11] = biological target: Beta-2 adrenergic receptor (Cavia porcellus) (UniProt Q8K4Z4); assay: Agonist activity at beta2-adrenoceptor in guinea-pig tracheal-strip assessed as duration of action on inhibition of electrically-stimulated muscle contraction; assay type: functional, tissue-based; details: Trachea
Beta-2 adrenergic receptor (Cavia porcellus), sequence (Q8K4Z4 whole entry, looked up): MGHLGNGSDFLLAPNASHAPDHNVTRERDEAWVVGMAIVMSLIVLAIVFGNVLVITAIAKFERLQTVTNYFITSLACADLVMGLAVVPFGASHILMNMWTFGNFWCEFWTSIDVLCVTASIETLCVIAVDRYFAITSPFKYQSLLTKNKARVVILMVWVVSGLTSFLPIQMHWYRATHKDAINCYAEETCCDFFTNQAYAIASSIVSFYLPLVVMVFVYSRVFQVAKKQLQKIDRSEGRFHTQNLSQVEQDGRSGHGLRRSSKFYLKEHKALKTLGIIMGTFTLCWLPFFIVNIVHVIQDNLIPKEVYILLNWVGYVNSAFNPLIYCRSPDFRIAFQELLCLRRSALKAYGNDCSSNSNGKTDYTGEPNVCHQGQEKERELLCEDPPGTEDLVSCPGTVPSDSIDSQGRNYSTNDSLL

Beta-1 adrenergic receptor, sequence (P08588 whole entry): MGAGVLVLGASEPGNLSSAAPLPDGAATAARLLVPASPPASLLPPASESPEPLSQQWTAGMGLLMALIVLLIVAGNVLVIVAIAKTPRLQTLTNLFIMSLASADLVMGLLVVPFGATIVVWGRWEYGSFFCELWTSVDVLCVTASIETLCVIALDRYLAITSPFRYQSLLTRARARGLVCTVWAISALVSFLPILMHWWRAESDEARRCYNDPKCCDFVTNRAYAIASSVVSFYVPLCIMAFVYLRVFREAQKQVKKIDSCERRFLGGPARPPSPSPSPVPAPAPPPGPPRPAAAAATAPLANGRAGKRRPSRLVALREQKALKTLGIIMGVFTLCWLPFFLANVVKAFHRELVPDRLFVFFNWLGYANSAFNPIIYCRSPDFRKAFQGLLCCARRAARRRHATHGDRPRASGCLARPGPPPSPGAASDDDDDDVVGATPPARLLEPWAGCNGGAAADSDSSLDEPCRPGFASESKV
T2 sequence (P14416 whole entry): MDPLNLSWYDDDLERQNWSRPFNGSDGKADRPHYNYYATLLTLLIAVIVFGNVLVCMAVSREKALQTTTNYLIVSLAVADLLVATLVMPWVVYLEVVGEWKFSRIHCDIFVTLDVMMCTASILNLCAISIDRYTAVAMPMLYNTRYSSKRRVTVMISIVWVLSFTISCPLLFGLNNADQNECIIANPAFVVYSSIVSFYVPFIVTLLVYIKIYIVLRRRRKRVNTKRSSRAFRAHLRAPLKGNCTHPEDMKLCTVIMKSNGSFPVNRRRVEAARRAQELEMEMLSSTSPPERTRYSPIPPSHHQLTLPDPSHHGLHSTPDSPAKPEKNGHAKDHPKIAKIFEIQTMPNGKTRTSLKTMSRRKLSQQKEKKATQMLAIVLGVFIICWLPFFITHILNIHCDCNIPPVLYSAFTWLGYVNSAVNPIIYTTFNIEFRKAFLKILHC
Beta-2 adrenergic receptor (Cavia porcellus, UniProt Q8K4Z4), sequence (Q8K4Z4 whole entry): as the sequence (Q8K4Z4 whole entry, looked up) above

| SMILES | Ki [1] [nM] | Ki [2] [nM] | Ratio Ki (Homo sapiens) | TIME [11] [h] | other results |
| --- | --- | --- | --- | --- | --- |
| CCc1cc2c(cc1CC)CC(NCC(O)c1ccc(O)c3[nH]c(=O)c(C)cc13)C2 (racemic) | 227 | 382 | 0.59 |  |  |
| CCc1cc2c(cc1CC)CC(C)(NC[C@H](O)c1ccc(O)c3[nH]c(=O)ccc13)C2 | 1.9 | 0.6 | 3.2 |  | Efficacy [3]: 116%; EC50 [4]: 0.28 nM; Ratio Ki [5]: > 10; Ratio EC50 [6]: 7.3; Kd [7]: 0.26 nM |
| O=c1[nH]c2c(O)ccc(CCNCCS(=O)(=O)CCCOCCc3ccccc3)c2s1 [SIBENADET] | 3920 | 4 | 981 |  | Efficacy (D(2) dopamine receptor [8]): 106%; EC50 (D(2) dopamine receptor [9]): 4.5 nM |
| CCc1cc2c(cc1CC)CC(NCC(O)c1c(C)cc(O)c3[nH]c(=O)ccc13)C2 (racemic) | > 10000 | 515 | > 19 |  |  |
| CCCCc1ccc2c(c1)CC(NC[C@H](O)c1ccc(O)c3[nH]c(=O)ccc13)C2 (some centres undefined) | 259 | 19.4 | 13.4 |  |  |
| CCc1cc2c(cc1CC)CC(NC[C@H](O)c1ccc(O)c3c1CCC(=O)N3)C2 | 183 | 45 | 4.1 | 0.542 | IC50 [10]: 3.9 nM; ED80 (Rhesus monkey): 0.0532 mg/kg |
| Cc1c(C)c(C)c2c(c1C)CC(NC[C@H](O)c1ccc(O)c3[nH]c(=O)ccc13)C2 | 421 | 175 | 2.4 |  |  |
| NC(=O)C(c1ccccc1)(c1ccccc1)[C@@H]1CCN(CCc2ccc3c(c2)CCO3)C1 [DARIFENACIN] |  |  |  | 0.5 | Efficacy [3]: 85% |
| CCc1cc2c(cc1CC)CC(NCCc1ccc(O)c3[nH]c(=O)ccc13)C2 | 478 | 261 | 1.8 | 2.18 | IC50 [10]: 240 nM; EC50 (D(2) dopamine receptor [9]): > 10000 nM |
